Experimental findings from patent US8487121B2, “Chromane derivatives as TRPV3 modulators” (Glenmark Pharmaceuticals S.A., priority 2007, dated 2013) are described below.

This assay deals with T1, Human TRPV3 (Homo sapiens, UniProt Q8NET8).
T1 construct: expressed in transfected cells; host or cells: CHO cells (G-418 selected)
T1 sequence (Q8NET8 1-790): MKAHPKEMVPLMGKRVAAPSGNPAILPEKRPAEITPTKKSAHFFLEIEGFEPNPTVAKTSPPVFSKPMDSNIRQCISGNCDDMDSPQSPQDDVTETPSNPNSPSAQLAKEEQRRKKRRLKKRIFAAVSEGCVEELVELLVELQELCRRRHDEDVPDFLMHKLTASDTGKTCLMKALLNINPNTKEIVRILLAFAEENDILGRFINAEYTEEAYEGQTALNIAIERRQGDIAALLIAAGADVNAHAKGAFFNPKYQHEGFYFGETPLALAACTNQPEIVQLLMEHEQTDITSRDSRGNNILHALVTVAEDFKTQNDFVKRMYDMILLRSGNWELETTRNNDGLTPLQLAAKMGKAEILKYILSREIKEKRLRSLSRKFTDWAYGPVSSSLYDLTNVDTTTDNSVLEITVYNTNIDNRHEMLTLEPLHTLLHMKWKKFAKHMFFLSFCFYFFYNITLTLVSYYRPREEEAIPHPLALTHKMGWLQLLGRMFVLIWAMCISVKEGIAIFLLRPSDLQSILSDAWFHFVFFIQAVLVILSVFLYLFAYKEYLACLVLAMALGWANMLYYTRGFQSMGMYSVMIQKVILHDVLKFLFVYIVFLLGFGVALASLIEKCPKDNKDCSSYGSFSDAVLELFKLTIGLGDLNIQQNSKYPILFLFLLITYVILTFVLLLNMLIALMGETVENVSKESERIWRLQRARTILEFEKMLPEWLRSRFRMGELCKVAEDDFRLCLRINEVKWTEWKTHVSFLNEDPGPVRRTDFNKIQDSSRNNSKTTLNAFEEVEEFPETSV
In words: 45Calcium uptake assay: inhibition of 2-APB induced cellular uptake of radioactive calcium. As to conditions: human TRPV3 expressing CHO cells, 2-APB 500 μM; for inhibition at 1 µM: 1.0 μM compound, read-out: Percentage inhibition at 1.0 μM; for inhibition at 10 µM: 10.0 μM compound, read-out: Percentage inhibition at 10.0 μM. The class given is cell-based. An outline of the steps: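 CHO cells stably expressing human TRPV3 (~50,000/well) were preincubated with compounds for 10 min in medium containing 0.1% BSA, 1.8 mM CaCl2 and 0.5% DMSO. Then 500 μM 2-APB and 5 μCi/ml 45Ca2+ were added for 4 min. Lysate radioactivity was expressed as % of maximal uninhibited response, and IC50 came from nonlinear regression, alongside % inhibition at 1.0 and 10.0 μM.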

As to `COc1cccc(CCC(=O)NC2CC3(CCC3)Oc3c(Cl)cc(Cl)cc32)c1OC1CCCC1` (centres unmarked) [Example 59, N-(6,8-Dichloro-3,4-dihydrospiro[chromene-2,1′-cyclobutan]-4-yl)-3-(2-cyclopentyloxy-3-methoxy)phenylpropanamide], the inhibition (as a rule, the drop in the measured response relative to a control, in per cent) at 1 µM was determined as 89.4%; the inhibition at 10 µM worked out at 96.3%; the IC50 (as a rule, the midpoint of a concentration-inhibition curve) was < 500 nM.

On to `COc1cccc(CCCC(=O)NC2CC3(CCC3)Oc3c(Cl)cc(F)cc32)c1OC1CCCC1` (centres unmarked) [Example 97, N-(8-Chloro-6-fluoro-3,4-dihydrospiro[chromene-2,1′-cyclobutan]-4-yl)-4-(2-cyclopentyloxy-3-methoxyphenyl)butanamide], for which the inhibition at 1 µM was determined as 60%, the inhibition at 10 µM is 90.3% and the IC50 lay in the range of 1000 to 2000 nM.

In the case of `COc1ccc(CCC(=O)NC2CC3(CCC3)Oc3ccc(Cl)cc32)c2cc(C)oc12` (centres unmarked) [Example 78, N-(6-chloro-3,4-dihydrospiro[chromene-2,1′-cyclobutan]-4-yl)-3-(2-methyl, 7-methoxy-1-benzofuran-4-yl)propanamide], the inhibition at 1 µM was found to be 46.1%, the inhibition at 10 µM stood at 91.3% and the IC50 fell in the range of 500 to 1000 nM.

Consider `COc1cccc(CC(=O)NC2CC3(CCC3)Oc3ccc(Cl)cc32)c1OC1CCCC1` (centres unmarked) [Example 4, N-(6-Chloro-3,4-dihydrospiro[chromene-2,1′-cyclobutan]-4-yl)-2-(2-(cyclopentyloxy)-3-methoxyphenyl)acetamide], for which the inhibition at 1 µM is 37.2% and the inhibition at 10 µM was found to be 66.2%.

Consider `COc1cccc(CCC(=O)NC2CC(C)(C)Oc3ccccc32)c1OC1CCCC1` (centres unmarked) [Example 88, N-(2,2-Dimethyl-3,4-dihydro-2H-chromen-4-yl)-3-(2-cyclopentyloxy-3-methoxy)phenylpropanamide], for which the inhibition at 1 µM amounted to 17.1% and the inhibition at 10 µM worked out at 93.2%.

For the compound `COc1cccc(CCCC(=O)N[C@@H]2CC3(CCC3)Oc3c(Cl)cccc32)c1OC1CCCC1` [Example 95, (4R)—N-(8-Chloro-3,4-dihydrospiro[chromene-2,1′-cyclobutan]-4-yl)-4-(2-cyclopentyloxy-3-methoxyphenyl)butanamide], the inhibition at 1 µM was 71.8%, the inhibition at 10 µM was found to be 96.5% and the IC50 lay within 500 to 1000 nM.

As to `O=C(CCc1ccc2ccccc2c1)NC1CC2(CCC2)Oc2ccc(Cl)cc21` (centres unmarked) [Example 73, N-(6-Chloro-3,4-dihydrospiro[chromene-2,1′-cyclobutan]-4-yl)-3-(2-naphthyl)propanamide], the inhibition at 1 µM came out at 61.3%, the inhibition at 10 µM came to 83.3% and the IC50 lay within 500 to 1000 nM.

In the case of `CS(=O)(=O)Nc1ccccc1CC(=O)NC1CC2(CCC2)Oc2ccc(Cl)cc21` (centres unmarked) [Example 3, N-(6-chloro-3,4-dihydrospiro[chromene-2,1′cyclobutan]-4-yl)-2-{2-[(methylsulfonyl)-amino]phenyl}acetamide], the inhibition at 1 µM came to 0% and the inhibition at 10 µM amounted to 33.1%.

`O=C(CCc1cccc2c1OCO2)NC1CC2(CCC2)Oc2ccc(Cl)cc21` (centres unmarked) [Example 82, 3-(1,3-Benzodioxol-4-yl)-N-[6-chloro-3,4-dihydrospiro[chromene-2,1′-cyclobutan]-4-yl]propanamide]: the inhibition at 1 µM came to 24.3% and the inhibition at 10 µM was 90.9%.
